Patent publication US7045307B2, “Method for measuring no synthase activity” (Gruenenthal GmbH, priority 2000, dated 2006)

How the values were obtained:
[1] = molecular target: T1, isolated nNOS from rat cerebella (Rattus norvegicus, UniProt P29476); experiment: Citrulline assay according to Bredt and Snyder (1990), separation by column chromatography; assay type: biochemical; conditions: [3H]arginine 50 nM
Text: On completion of the reaction the enzyme mixtures are passed over separate cation exchange columns. Elution of the [^3H]L-citrulline and determination of the eluates then takes place on a β-counter. The disadvantage of this method is that column chromatography has to take place separately for each enzyme mixture (e.g. 96 chromatography columns are needed per 96 well microtiter plate).
The precipitate is discarded.
The separation was effected by means of column chromatography.

[2] = molecular target: T1, isolated nNOS from rat cerebella; experiment: Arginine assay according to the invention (HTS NOS assay, cation exchanger filter MTP)

inhibition at 10 µM ([2]; read-out: NOS inhibition) [%]	IC50 [2] [µM]	Structure (SMILES)	IC50 [1] [µM]	IC50 ([2]; read-out: IC50 value, Arginine assay according to the invention as in Example 4, [3H]arginine 50 nM, nNOS from rat cerebella, 96 well cation exchanger filter MTP) [µM]
–	–	FC(F)(F)c1ccccc1-n1ccnc1 [TRIM, 1-(2-trifluormethylphenyl)imidazole]	> 100	> 100
~50	–	O=[N+]([O-])c1cccc2cn[nH]c12 [7-Nitroindazole, 7-nitroindazole]	–	–
–	5.02	C=CCC(=N)NCCC[C@H](N)C(=O)O [Vinyl L-NIO, N5-(1-imino-3-butenyl)-L-ornithine]	5.57	–
